What was measured:
Assay type in all cases: cell-based
KRAS G12V = biological target: T1, KRAS G12V (Homo sapiens, UniProt P01116, G12V); experiment: KRAS G12V HiBit assay; settings: SW620-KRAS (G12V)-HiBit-KI cells, compound treatment for 24 hours, class symbols
T1 construct: SW620-KRAS (G12V)-HiBit-KI cell (Pharmaron); host or cells: SW620-KRAS (G12V)-HiBit-KI cells (HiBiT knock-in at the endogenous KRAS locus)
In short: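 Luminescence from lytic Nano-Glo HiBiT detection with LgBiT read KRAS G12V levels after 24 h compound exposure. Dilutions were 10-point, 3-fold, from a 0.3 mM DMSO stock. Degradation activity was normalised to cells given 0.1% DMSO alone.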

KRAS G12D = biological target: T2, KRAS G12D (Homo sapiens, UniProt P01116, G12D); experiment: KRAS G12D HiBit assay; settings: AsPc-1-KRAS (G12D)-HiBit-KI cell, compound treatment for 24 hours; for DC50: absolute DC50
T2 construct: AsPc-1-KRAS (G12D)-HiBit-KI cell (Pharmaron); host or cells: AsPc-1-KRAS (G12D)-HiBit-KI cells (HiBiT knock-in at the endogenous KRAS locus)
In short: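 HiBiT luminescence, detected by adding lytic buffer, substrate and LgBiT protein, served as the KRAS G12D read-out. Compounds, serially diluted 3-fold over 10 points from 0.3 mM DMSO stock, were on cells for 24 h; percent inhibition normalized to cells given 0.1% DMSO only.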

KRAS = biological target: T3, KRAS (Homo sapiens, UniProt P01116); experiment: KRASamp MSD assay; settings: KE39 (KRAS amplified) cells, treated with test compounds for 24 hr, MSD readout of KRAS degradation
T3 construct: endogenous in cells; host or cells: KE39 (KRAS amplified) cells
In short: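 Degradation DC50 derived by curve fitting, with KRAS levels quantified by MSD electrochemiluminescence (capture/detection antibodies, recombinant WT KRAS standard). Lysates prepared from KE39 cells (KRAS amplified) exposed to test compounds for 24 hr.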

T1 sequence (P01116 1-188 isoform P01116-2 G12V): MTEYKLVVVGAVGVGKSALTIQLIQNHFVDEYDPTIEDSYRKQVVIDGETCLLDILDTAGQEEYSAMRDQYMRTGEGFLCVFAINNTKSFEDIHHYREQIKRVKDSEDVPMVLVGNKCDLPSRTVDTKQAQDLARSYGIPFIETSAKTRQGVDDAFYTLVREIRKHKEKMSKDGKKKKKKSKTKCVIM
T3 sequence (P01116 1-188 isoform P01116-2): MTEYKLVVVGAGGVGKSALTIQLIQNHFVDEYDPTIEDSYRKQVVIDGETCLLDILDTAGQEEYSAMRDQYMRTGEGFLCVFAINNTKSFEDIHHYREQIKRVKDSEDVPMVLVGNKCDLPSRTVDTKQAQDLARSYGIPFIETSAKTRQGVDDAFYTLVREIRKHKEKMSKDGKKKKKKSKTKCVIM
T2 sequence (P01116 1-188 isoform P01116-2 G12D): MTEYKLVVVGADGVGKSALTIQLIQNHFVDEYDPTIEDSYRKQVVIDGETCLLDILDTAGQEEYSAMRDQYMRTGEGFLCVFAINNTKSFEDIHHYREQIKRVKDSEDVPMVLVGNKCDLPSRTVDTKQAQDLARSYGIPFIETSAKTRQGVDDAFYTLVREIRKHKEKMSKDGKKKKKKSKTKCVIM

DC50 (KRAS G12V) | DC50 (KRAS G12D; numeric bounds given in place of class symbols) | DC50 (KRAS) | DC50 (KRAS G12D; class symbols) | Dmax (KRAS G12D; class symbols) | SMILES
> 0.1 µM | > 0.1 µM | ≥ 0.01 µM | – | – | C#Cc1c(F)ccc2cc(O)cc(-c3ncc4c(N5CCC[C@@](C)(O)C5)nc(OC[C@@]56CCCN5[C@H](COC(=O)N5CC(N7CCC(N8CCC(c9ccc%10c(c9)n(C)c(=O)n%10C9CCC(=O)NC9=O)CC8)CC7)C5)CC6)nc4c3F)c12 (stereo partly drawn) [Compound 322, ((3S,7aS)-7a-(((7-(8-ethynyl-7-fluoro-3-hydroxynaphthalen-1-yl)-8-fluoro-4-((R)-3-hydroxy-3-methylpiperidin-1-yl)pyrido[4,3-d]pyrimidin-2-yl)oxy)methyl)hexahydro-1H-pyrrolizin-3-yl)methyl 3-(4-(1-(2,6-dioxopiperidin-3-yl)-3-methyl-2-oxo-2,3-dihydro-1H-benzo[d]imidazol-5-yl)-[1,4′-bipiperidin]-1′-yl)azetidine-1-carboxylate]
0.01 to 0.1 µM | – | 0.001 to 0.01 µM | < 0.1 µM | – | CCc1c(F)ccc2cc(O)cc(-c3ncc4c(N5CCC[C@@](C)(O)C5)nc(OC[C@]56CCCN5[C@H](COC(=O)N5CCC(N7CCC(c8ccc9c(c8)n(C)c(=O)n9C8CCC(=O)NC8=O)C7)CC5)CC6)nc4c3F)c12 (stereo partly drawn) [Compound 337, ((3S,7aR)-7a-(((7-(8-ethyl-7-fluoro-3-hydroxynaphthalen-1-yl)-8-fluoro-4-((R)-3-hydroxy-3-methylpiperidin-1-yl)pyrido[4,3-d]pyrimidin-2-yl)oxy)methyl)hexahydro-1H-pyrrolizin-3-yl)methyl 4-(3-(1-(2,6-dioxopiperidin-3-yl)-3-methyl-2-oxo-2,3-dihydro-1H-benzo[d]imidazol-5-yl)pyrrolidin-1-yl)piperidine-1-carboxylate]
> 0.1 µM | – | ≥ 0.01 µM | < 0.1 µM | – | CCc1c(F)ccc2cc(O)cc(-c3ncc4c(N5CCC[C@@](C)(O)C5)nc(OC[C@@]56CCCN5[C@@H](COC(=O)N5CCC(CCCCOc7ccc8c(c7)n(C)c(=O)n8C7CCC(=O)NC7=O)CC5)CC6)nc4c3F)c12 (stereo partly drawn) [Compound 317, ((3R,7aS)-7a-(((7-(8-ethyl-7-fluoro-3-hydroxynaphthalen-1-yl)-8-fluoro-4-((R)-3-hydroxy-3-methylpiperidin-1-yl)pyrido[4,3-d]pyrimidin-2-yl)oxy)methyl)hexahydro-1H-pyrrolizin-3-yl)methyl 4-(4-((1-(2,6-dioxopiperidin-3-yl)-3-methyl-2-oxo-2,3-dihydro-1H-benzo[d]imidazol-5-yl)oxy)butyl)piperidine-1-carboxylate]
> 0.1 µM | – | 0.001 to 0.01 µM | < 0.1 µM | – | CCc1c(F)ccc2cc(O)cc(-c3ncc4c(N5CCC[C@@](C)(O)C5)nc(OC[C@]56CCCN5[C@H](COC(=O)N5CCC(c7ccc8c(c7)n(C)c(=O)n8C7CCC(=O)NC7=O)CC5)CC6)nc4c3F)c12 (stereo partly drawn) [Compound 307, ((3S,7aR)-7a-(((7-(8-ethyl-7-fluoro-3-hydroxynaphthalen-1-yl)-8-fluoro-4-((R)-3-hydroxy-3-methylpiperidin-1-yl)pyrido[4,3-d]pyrimidin-2-yl)oxy)methyl)hexahydro-1H-pyrrolizin-3-yl)methyl 4-(1-(2,6-dioxopiperidin-3-yl)-3-methyl-2-oxo-2,3-dihydro-1H-benzo[d]imidazol-5-yl)piperidine-1-carboxylate]
< 0.01 µM | – | < 0.001 µM | < 0.1 µM | > 50% | CCc1c(F)ccc2cc(O)cc(-c3ncc4c(N5CCC[C@@](C)(O)C5)nc(OC[C@@]56CCCN5[C@H](COC(=O)N5CCC(CN7CCC(c8cc9c(cc8F)n(C8CCC(=O)NC8=O)c(=O)n9C)CC7)CC5)CC6)nc4c3F)c12 (stereo partly drawn) [Compound 101, ((35,7aS)-7a-(((7-(8-Ethyl-7-fluoro-3-hydroxynaphthalen-1-yl)-8-fluoro-4-((R)-3-hydroxy-3-methylpiperidin-1-yl)pyrido[4,3-d]pyrimidin-2-yl)oxy)methyl)hexahydro-1H-pyrrolizin-3-yl)methyl 4-((4-(1-(2,6-dioxopiperidin-3-yl)-6-fluoro-3-methyl-2-oxo-2,3-dihydro-1H-benzo[d]imidazol-5-yl)piperidin-1-yl)methyl) piperidine-1-carboxylate]
